In US11427595B2, “Compositions and methods for inhibiting viral infection” (Trustees of Boston University, priority 2018, dated 2022):
pEC50: −log10 of the molar value. Where two headings read alike, the source gives them in different places.

Key:
Huh7.5.1 cells [1] = test: MTS cell viability assay; type: cell-based, human; conditions: 3 h treatment, 72 h incubation
Text: In this comparison, niclosamide was used as a positive control, which is known as HCV inhibitor (unclear mechanisms). Data from CellTiter-Glo assay was obtained from separate experiments conducted on a different date.
MTS (3-(4,5-dimethylthiazol-2-yl)-5-(3-carboxymethoxyphenyl)-2-(4-sulfophenyl)-2H-tetrazolium)) assay is a colorimetric assay used to determine the mitochondrial metabolic rate by quantifying the reduced formazan product of MTS in cells to reflect viable cells. To determine the CC50 of each compound, Huh7.5.1 cells were treated with compounds or DMSO at indicated doses for 3 h in 96-well plates. After removal of compounds, cells were further incubated for 72 h prior to conducting the viability assay. The MTS assay in this study is accordance with a protocol provided by manufacturer (Promega, Madison, Wis. USA). One-fifth volume of MTS reagent was added into the culture supernatant at indicated time points. Plates were incubated at 37° C. for 3 hours with 5% CO2 followed by measuring the absorbance at 490 nanometers (nm) with an ELISA reader (SpectraMax Plus 385, Molecular Devices, USA). Percentages of toxicity were calculated using the formulas: 100-percentage of vial cells relative to that from the dimethyl sulfoxide (DMSO) treated group (100%) (n=3) (FIG. 68-FIG. 71).

[2] = tested on: cap-dependent Firefly luciferase (FLuc) translation; test: In vitro translation of bicistronic FF/HCV/Ren mRNA in Krebs-2 extracts, cap-dependent; type: biochemical; conditions: 1 μM, relative to DMSO
Text: (§1) In this system, Firefly luciferase (FLuc) translation is cap-dependent whereas Renilla luciferase (RLuc) expression HCV-IRES dependent. […] Results are presented relative to values obtained in the presence of DMSO ad expressed as mean±error of two biological replicates.
(§2) In this system, translation of the Firefly luciferase (FLuc) translation is cap-dependent whereas Renilla luciferase (RLuc) translation is dependent upon the HCV internal ribosome entry site (IRES) FIG. 11A.
(§3) In vitro transcriptions and translations were performed as described previously. Plasmid encoding the bicistronic FF/HCV/Ren open reading frame was linearized with BamHI and m^7Gppp-capped mRNA was produced by in vitro transcription reactions using SP6 RNA polymerase. In vitro translation reactions were performed with S10 extracts prepared from Kreb-2 cells and programmed with 4 ng/uL of in vitro transcribed mRNA. Firefly (FF) and Renilla (Ren) luciferase activities were measured on a Berthold Lumat LB9507 Luminometer and values normalized against vehicle control, which was set at 1.

[3] = tested on: HCV internal ribosome entry site (IRES)-dependent Renilla luciferase (RLuc) translation; test: In vitro translation of bicistronic FF/HCV/Ren mRNA in Krebs-2 extracts, HCV IRES-dependent; type: biochemical, Hepatitis C virus; conditions: 1 μM, relative to DMSO
Text: as §1, §2, §3

JFH-1 HCVcc-Luc = test: microbe, parasite or virus in culture; type: cell-based, Hepatitis C virus; conditions: for pEC50: Hepatitis C virus, Huh-7.5.1, read-out: EC50, inhibition of HCV infection; for inhibition of HCV infection (in words): Huh7.5.1 cells, comparisons are to aglaroxin C (6)
[4] = tested on: HCV replicon cell line 2-3+ (full-length HCV Genotype 1b RNA genome); test: HCV replicon system: viral RNA replication and protein synthesis; type: cell-based, Hepatitis C virus; conditions: 2 μM for 3 h; for HCV RNA replication: viral RNA by real-time PCR after 48 or 72 h; for HCV protein synthesis (translation): NS5 by Western blotting after 48 or 72 h
Method: HCV replicon cell line 2-3+ was treated with the indicated compounds for 3 h. Cells were incubated for an additional 48 hours (FIG. 10A and FIG. 10C) or 72 hours (FIG. 10B and FIG. 10D). Cellular RNA or protein was isolated for quantifications of HCV viral RNA by real-time PCR (FIG. 10A and FIG. 10B) or […] NS5 by Western blotting (FIG. 10C and FIG. 10D).
Next, the ability of the aglaroxin C analogues to inhibit HCV RNA replication and mRNA translation was investigated using an HCV replicon system which harbors a full-length HCV Genotype 1b RNA genome. In replicon cells, HCV RNA replicates and is translated into viral proteins without forming infectious viruses. […] To corroborate these findings, an in vitro translation inhibition assay was assembled where a bicistronic reporter mRNA was programmed for translation in Krebs-2 extracts FIG. 11A-11B.
Cells and Antibodies. The human liver cell line Huh7.5.1 was provided by Scripps Research Institute. The full-length HCV Genotype 1b-replicon-containing cell line 2-3(+) was a gift from University of North Carolina, Chapel Hill, N.C. The Aedes albopictus cell line C6/36 was purchased from American Type Culture Collection (ATCC) (CRL-1660). All cell lines were maintained in DMEM supplemented with 5% penicillin and streptomycin, 1% NEAA, and 10% fetal bovine serum (FBS) (Gemini Bio-Products). The β-actin antibody (clone AC-74) was purchased from Sigma. The HCV NS5A monoclonal antibody 9E10 was a gift from Rockefeller University. Secondary antibodies were purchased from Jackson ImmunoResearch Laboratories, Inc, and Molecular Probes (Invitrogen). Primer sequences are: Dengue 16681: F: 5′-[…]-3′ (SEQ ID NO: 3); R: 5′-[…]-3′ (SEQ ID NO: 4). GAPDH: F: 5′-[…]-3′ (SEQ ID NO: 5); R: 5′-[…]-3′ (SEQ ID NO: 6).

HCVcc-Luc = test: HCVcc time-of-addition assay; type: cell-based, Hepatitis C virus; conditions: Huh7.5.1 cells, 0.5 μM for 3 h, luciferase after 48 h
VSVpp = type: cell-based, vesicular stomatitis virus
Huh7.5.1 cells [5] = test: Cytotoxicity, CellTiter-Glo Cell Viability Luminescent Assay; type: cell-based, human
Method: (§4) To determine the […] of each compound, Huh7.5.1 cells were treated with compounds or DMSO at indicated doses for 3 h in 96-well plates. After removal of compounds, cells were further incubated for 72 h prior to the viability assay. The numbers of viable cells in culture were determined using the CellTiter-Glo Cell Viability Luminescent Assay kit according to the manufacturer's instruction (Promega). Percentages of toxicity were calculated using the formulas: 100-percentage of vial cells relative to that from the dimethyl sulfoxide (DMSO) treated group (100%) (n=3) (FIG. 20-FIG. 57).

HCVpp = type: cell-based, Hepatitis C virus; conditions: Huh7.5.1 cells, racemates and single (+)-enantiomers, 1 μM or 2 μM for 3 h, luciferase after 48 h
CHIKVpp = type: cell-based, Chikungunya virus; conditions: Huh7.5.1 cells, racemates and single (+)-enantiomers, 1 μM or 2 μM for 3 h, luciferase after 48 h
Ebolapp = type: cell-based, Ebola virus
[6] = tested on: Dengue virus (serotype 2, Thailand 16681 strain); type: cell-based; conditions: Huh7.5.1 cells, MOI 0.1, 2 μM for 3 h, viral RNA 48 h post-infection normalized against GAPDH
[7] = tested on: hepatitis C viral (HCV) entry into host cells; conditions: separate earlier studies; cited from earlier work
translation = conditions: previous studies; cited from earlier work
[8] = Cytotoxicity, CellTiter-Glo Cell Viability Luminescent Assay; type: cell-based, human; conditions: human; Huh7.5.1 cells, 3 h treatment, viability after 72 h; concentration giving 50% cell death
Method: as §4

[9] = tested on: Dengue virus (serotype 2, Thailand 16681 strain); conditions: comparison named in the text, no data shown; cited from earlier work

For `COc1ccc([C@@]23Oc4cc(OC)cc(OC)c4[C@]2(O)c2nc(-c4ccc(C)cc4)[nH]c(=O)c2[C@H]3c2ccccc2)cc1` (racemic) [12l, (5R,5aR,10bS)-10b-Hydroxy-8,10-dimethoxy-5a-(4-methoxyphenyl)-5-phenyl-2-(p-tolyl)-3,5,5a,10b-tetrahydro-4H-benzofuro[2′,3′:4,5]cyclopenta[1,2-d]pyrimidin-4-one], the “toxicity curve in MTS assay compared with CellTiter-Glo assay” value (Huh7.5.1 cells [1]) was “nearly identical toxicity curves”, the “translation inhibition of firefly luciferase (cap-dependent)” value (“translation inhibition … (cap-dependent)” below) [2] was “minimal” and the “HCV mRNA (IRES-dependent) translation” value [3] was “not inhibited”. For the same compound, the pEC50 (JFH-1 HCVcc-Luc) was roughly 6.30, the “inhibition of HCV infection (in words)” value (JFH-1 HCVcc-Luc) was “three-fold greater inhibition” and the “HCV RNA replication” value [4] was “neither inhibit HCV RNA replication”. For the same compound, the “anti-HCV activity when added 3 h after infection was initiated” value (“anti-HCV activity when added 3 h” below) (HCVcc-Luc) was “partially lost their activity”, the “anti-HCV activity when added together with the virus” value (“anti-HCV activity … with the virus” below) (HCVcc-Luc) was “maximal anti-HCV activity” and the “inhibition of VSVpp infection” value (VSVpp) was “not”. The “AUC0.2-200, area under the cytotoxicity curve (in words)” value (Huh7.5.1 cells [5]) was “relatively lower cytotoxicities”, the “inhibition of HCVpp infection” value (HCVpp) was “specifically inhibited” and the “inhibition of CHIKVpp infection” value (CHIKVpp) was “specifically inhibited”. The “inhibition of Ebolapp infection” value (Ebolapp) was “not”.
With `COc1ccc([C@@]23Oc4cc(OC)cc(OC)c4[C@]2(O)c2nc(-c4cccc(OC)c4)[nH]c(=O)c2[C@H]3c2ccccc2)cc1` (racemic) [12s, (5R,5aR,10bS)-10b-Hydroxy-8,10-dimethoxy-2-(3-methoxyphenyl)-5a-(4-methoxyphenyl)-5-phenyl-3,5,5a,10b-tetrahydro-4H-benzofuro[2′,3′:4,5]cyclopenta[1,2-d]pyrimidin-4-one] the “translation inhibition … (cap-dependent)” value [2] was “minimal”, the “HCV mRNA (IRES-dependent) translation” value [3] was “not inhibited” and the pEC50 (JFH-1 HCVcc-Luc) was roughly 6.30. The “inhibition of HCV infection (in words)” value (JFH-1 HCVcc-Luc) was “three-fold greater inhibition”, the “HCV RNA replication” value [4] was “neither inhibit HCV RNA replication” and the “anti-HCV activity when added 3 h” value (HCVcc-Luc) was “partially lost their activity”. For the same compound, the “anti-HCV activity … with the virus” value (HCVcc-Luc) was “maximal anti-HCV activity”, the “anti-HCV activity … with the virus” value (HCVcc-Luc; listed as (±)-12s) was “inhibited HCV infection” and the “inhibition of VSVpp infection” value (VSVpp) was “not”. The “AUC0.2-200, area under the cytotoxicity curve (in words)” value (Huh7.5.1 cells [5]) was “relatively lower cytotoxicities”, the “inhibition of HCVpp infection” value (HCVpp) was “specifically inhibited” and the “inhibition of CHIKVpp infection” value (CHIKVpp) was “specifically inhibited”. For the same compound, the “inhibition of Ebolapp infection” value (Ebolapp) was “not”.
For `COc1ccc([C@@]23Oc4cc(OC)cc(OC)c4[C@]2(O)c2nc(-c4ccc(C)cc4)[nH]c(=O)c2[C@H]3c2ccccc2)cc1` [(+)-12l], the “inhibition of HCV infection (in words)” value (JFH-1 HCVcc-Luc) was “displayed HCV inhibition”, the “HCV protein synthesis (translation)” value [4] was “did not inhibit” and the “HCV RNA replication” value [4] was “did not inhibit”. The “anti-HCV activity … with the virus” value (HCVcc-Luc) was “inhibited HCV infection”, the “maximum cytotoxicity plateau compared to racemic counterparts” value (Huh7.5.1 cells [5]; Huh7.5.1 cells) was “increased substantially” and the “inhibition of Dengue virus infection” value [6] was “inhibited Dengue virus infection”.
With `COc1ccc([C@@]23Oc4cc(OC)cc(OC)c4[C@]2(O)c2nc(-c4cccc(OC)c4)[nH]c(=O)c2[C@H]3c2ccccc2)cc1` [(+)-12s] the “inhibition of HCV infection (in words)” value (JFH-1 HCVcc-Luc) was “displayed HCV inhibition”, the “HCV protein synthesis (translation)” value [4] was “did not inhibit” and the “HCV RNA replication” value [4] was “did not inhibit”. The “maximum cytotoxicity plateau compared to racemic counterparts” value (Huh7.5.1 cells [5]; Huh7.5.1 cells) was “increased substantially” and the “inhibition of Dengue virus infection” value [6] was “inhibited Dengue virus infection”.
For `COc1ccc([C@@]23Oc4cc(OC)cc(OC)c4[C@]2(O)c2nc4n(c(=O)c2[C@H]3c2ccccc2)CCC4)cc1` [compound 6, Aglaroxin C, reference compound], the “translation inhibition … (cap-dependent)” value [2] is given as “minimal”, the “HCV mRNA (IRES-dependent) translation” value [3] is given as “not inhibited” and the “concentration inhibiting HCV entry into host cells” value [7] is given as “low μM concentration”. The pEC50 (JFH-1 HCVcc-Luc) was 5.89, the “translation inhibition (in words)” value (translation) was “only moderate translation inhibition” and the “HCV RNA replication” value [4] was “neither inhibit HCV RNA replication”. The “anti-HCV activity when added 3 h” value (HCVcc-Luc) was “partially lost their activity”, the “anti-HCV activity … with the virus” value (HCVcc-Luc) was “maximal anti-HCV activity” and the CC50 [8] was 12000 nM. The “cytotoxicity (in words)” value (Huh7.5.1 cells [5]; Huh7.5.1 cells, comparisons are to aglaroxin C (6)) was “plateauing of cytotoxicity”.
For `COc1ccc([C@@]23Oc4cc(OC)cc(OC)c4[C@]2(O)[C@H](O)[C@H](C(=O)N(C)C)[C@H]3c2ccccc2)cc1` [rocaglamide], the “inhibition of Dengue virus infection” value [9] is listed as “inhibited Dengue virus infection”.
